# In ChEMBL document CHEMBL6182926, “Design, Synthesis, and Biological Activity Evaluation of Deuterated Diphenyl Azole Alcohol-Based CYP51 Inhibitors” (J Med Chem, 2025):
# Assays:
# [1] = Metabolic stability in human liver microsomes assessed as compound remaining measured up to 60 mins by LC-MS/MS analysis; format: ADME, Microsome; details: liver microsomes, read-out: Activity
# Cryptococcus neoformans [2] = test: Antifungal activity against Cryptococcus neoformans CGMCC 2.3161 assessed as reduction in ergosterol at 0.0125 ug/ml measured after 18 hrs incubation by gas chromatography-mass spectrometry (GCMS) analysis (reference value: 94.48%); format: functional; set-up: scale not given: the % may be the effect or the level left; details: dose 0.0125 µg/ml
# [3] = (§1) Selectivity ratio, ratio of IC50 for cytotoxicity against human SH-SY5Y cells to MIC80 for antifungal activity against Candida parapsilosis GIM 2.190; format: toxicity, cell-based
# Candida albicans [4] = test: Antifungal activity against Candida albicans SC5314 assessed as reduction in Obtusifoliol at 0.05 ug/ml measured after 18 hrs incubation by gas chromatography-mass spectrometry (GCMS) analysis; format: functional; set-up: scale not given: the % may be the effect or the level left; details: dose 0.05 µg/ml
# [5] = Half life in Sprague-Dawley rat at 3 mg/kg, iv by LC-MS/MS analysis; format: ADME, organism-based; details: in vivo
# Cryptococcus neoformans [6] = test: Antifungal activity against Cryptococcus neoformans CGMCC 2.3161 assessed as reduction in other sterol at 0.0125 ug/ml measured after 18 hrs incubation by gas chromatography-mass spectrometry (GCMS) analysis (reference value: 2.20%); format: functional; set-up: scale not given: the % may be the effect or the level left; details: dose 0.0125 µg/ml
# [7] = MRT (0 to infinity) in Sprague-Dawley rat at 3 mg/kg, iv by LC-MS/MS analysis; format: ADME, organism-based; details: in vivo
# [8] = Toxicity in ICR mouse assessed as structural alteration in kidney at 500 mg/kg, po single dose measured for 7 days by hematoxylin-eosin (H/E) staining analysis; format: organism-based; details: in vivo, 168 h, time 7 day
# Cytochrome P450 3A4 = Cytochrome P450 3A4 (Homo sapiens, UniProt P08684); test: Inhibition of CYP3A4 in human liver microsomes using midazolam as substrate measured after 10 mins by LC/MS/MS analysis; format: ADME, Microsome
# [9] = Subacute toxicity in ICR mouse assessed as structural alteration in liver at 100 mg/kg, oral gavage for 14 consecutive days by hematoxylin-eosin (H/E) staining analysis; format: organism-based; details: in vivo, 336 h, time 14 day
# Nakaseomyces glabratus [10] = test: Fungicidal index, ratio of MFC for fungicidal activity against Clinical isolate Candida glabrata to MIC80 for antifungal activity against Clinical isolate Candida glabrata; format: functional
# Nakaseomyces glabratus [11] = test: Fungicidal activity against Clinical isolate Candida glabrata assessed as concentration of colonies (< 5) measured after 48 hrs incubation; format: functional
# [12] = Selectivity ratio, ratio of IC50 for cytotoxicity against human SH-SY5Y cells to MIC80 for antifungal activity against Candida tropicalis CGMCC 2.3739; format: toxicity, cell-based
# Mus musculus = test: In vivo antifungal activity against Candida albicans SC5314 infected in ICR mouse model assessed as mouse survival at 5 mg/kg, oral gavage measured for 21 days post infection; format: functional; details: 504 h, time 21 day
# [13] = Subacute toxicity in ICR mouse assessed as structural alteration in kidney at 100 mg/kg, oral gavage for 14 consecutive days by hematoxylin-eosin (H/E) staining analysis; format: organism-based; details: in vivo, 336 h, time 14 day
# [14] = (§2) Selectivity ratio, ratio of IC50 for cytotoxicity against human SH-SY5Y cells to MIC80 for antifungal activity against Candida albicans CPCC 400616; format: toxicity, cell-based
# Nakaseomyces glabratus [15] = test: Antifungal activity against Clinical isolate Candida glabrata assessed as inhibition of visible growth; format: functional
# [16] = Oral bioavailability in Sprague-Dawley rat at 10 mg/kg by LC-MS/MS analysis; format: ADME, organism-based; details: in vivo
# [17] = Toxicity in ICR mouse assessed as structural alteration in liver at 500 mg/kg, po single dose measured for 7 days by hematoxylin-eosin (H/E) staining analysis; format: organism-based; details: in vivo, 168 h, time 7 day
# Cryptococcus neoformans [18] = test: Antifungal activity against Cryptococcus neoformans CGMCC 2.3161 assessed as reduction in Eburicol at 0.0125 ug/ml measured after 18 hrs incubation by gas chromatography-mass spectrometry (GCMS) analysis; format: functional; set-up: scale not given: the % may be the effect or the level left; details: dose 0.0125 µg/ml
# Candida albicans [19] = test: Antifungal activity against Candida albicans SC5314 assessed as reduction in Eburicol at 0.05 ug/ml measured after 18 hrs incubation by gas chromatography-mass spectrometry (GCMS) analysis; format: functional; set-up: scale not given: the % may be the effect or the level left; details: dose 0.05 µg/ml
# [20] = Subacute toxicity in ICR mouse assessed as mortality at 100 mg/kg, oral gavage for 14 consecutive days; format: organism-based; details: in vivo, 336 h, time 14 day
# [21] = Selectivity ratio, ratio of IC50 for cytotoxicity against human SH-SY5Y cells to MIC80 for antifungal activity against Clinical isolate Candida glabrata; format: toxicity, cell-based
# Cryptococcus neoformans [22] = test: Antifungal activity against Cryptococcus neoformans CGMCC 2.3161 assessed as reduction in Lanosterol at 0.125 ug/ml measured after 18 hrs incubation by gas chromatography-mass spectrometry (GCMS) analysis; format: functional; set-up: scale not given: the % may be the effect or the level left; details: dose 0.125 µg/ml
# [23] = as §1; format: toxicity, cell-based; remark: listed apart in the source
# Cryptococcus neoformans [24] = test: Antifungal activity against Cryptococcus neoformans CGMCC 2.3161 assessed as reduction in 14alpha-methylsterols at 0.125 ug/ml measured after 18 hrs incubation by gas chromatography-mass spectrometry (GCMS) analysis (reference value: 2.32%); format: functional; set-up: scale not given: the % may be the effect or the level left; details: dose 0.125 µg/ml
# [25] = MRT (0 to infinity) in Sprague-Dawley rat at 10 mg/kg, po by LC-MS/MS analysis; format: ADME, organism-based; details: in vivo
# Candida albicans [26] = test: Antifungal activity against Candida albicans SC5314 assessed as reduction in 14alpha-methylsterols at 0.05 ug/ml measured after 18 hrs incubation by gas chromatography-mass spectrometry (GCMS) analysis (reference value: 0.69%); format: functional; set-up: scale not given: the % may be the effect or the level left; details: dose 0.05 µg/ml
# [27] = Cytotoxicity against human SH-SY5Y cells measured after 72 hrs by MTT assay; format: toxicity, cell-based
# [28] = Cytotoxicity against human HUVEC cells measured after 72 hrs by MTT assay; format: toxicity, cell-based
# Candida albicans [29] = test: Antifungal activity against Candida albicans SC5314 assessed as reduction in other sterol at 0.05 ug/ml measured after 18 hrs incubation by gas chromatography-mass spectrometry (GCMS) analysis (reference value: 2.59%); format: functional; set-up: scale not given: the % may be the effect or the level left; details: dose 0.05 µg/ml
# [30] = Tmax in Sprague-Dawley rat at 3 mg/kg, iv by LC-MS/MS analysis; format: ADME, organism-based; details: in vivo
# [31] = as §2; format: toxicity, cell-based; remark: listed apart in the source
# Cytochrome P450 2C9 = Cytochrome P450 2C9 (Homo sapiens, UniProt P11712); test: Inhibition of CYP2C9 in human liver microsomes using diclofenac as substrate measured after 10 mins by LC/MS/MS analysis; format: ADME, Microsome
# Chain of Cytochrome P450 2C9 (P11712 whole entry): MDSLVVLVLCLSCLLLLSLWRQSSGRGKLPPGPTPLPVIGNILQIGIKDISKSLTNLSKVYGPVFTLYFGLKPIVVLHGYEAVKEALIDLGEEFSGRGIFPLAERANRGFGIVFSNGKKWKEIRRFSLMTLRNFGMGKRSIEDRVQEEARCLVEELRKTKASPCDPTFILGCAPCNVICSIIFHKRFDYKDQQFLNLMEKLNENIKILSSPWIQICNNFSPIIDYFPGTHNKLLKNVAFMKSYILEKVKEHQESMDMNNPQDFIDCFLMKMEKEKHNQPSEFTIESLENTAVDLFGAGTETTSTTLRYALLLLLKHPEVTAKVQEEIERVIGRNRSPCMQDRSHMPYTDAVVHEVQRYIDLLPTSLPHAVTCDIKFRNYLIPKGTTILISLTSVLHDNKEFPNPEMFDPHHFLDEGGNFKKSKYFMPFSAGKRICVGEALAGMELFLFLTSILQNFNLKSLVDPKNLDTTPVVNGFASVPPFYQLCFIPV
# Chain of Cytochrome P450 3A4 (P08684 whole entry): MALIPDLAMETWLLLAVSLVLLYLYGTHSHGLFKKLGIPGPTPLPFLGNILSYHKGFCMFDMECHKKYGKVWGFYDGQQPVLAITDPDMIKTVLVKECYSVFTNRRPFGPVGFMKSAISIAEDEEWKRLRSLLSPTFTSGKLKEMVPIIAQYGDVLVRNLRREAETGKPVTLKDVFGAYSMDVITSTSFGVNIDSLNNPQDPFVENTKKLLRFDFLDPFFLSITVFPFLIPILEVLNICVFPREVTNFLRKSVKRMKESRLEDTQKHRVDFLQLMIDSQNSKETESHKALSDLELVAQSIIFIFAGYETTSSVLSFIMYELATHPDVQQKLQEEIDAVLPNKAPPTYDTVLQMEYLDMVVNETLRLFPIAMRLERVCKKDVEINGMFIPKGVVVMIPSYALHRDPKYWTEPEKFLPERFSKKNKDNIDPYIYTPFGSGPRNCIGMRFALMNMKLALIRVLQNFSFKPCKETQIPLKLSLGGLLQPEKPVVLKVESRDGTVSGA
structure (smiles),measurement,setting,value
[2H]C([2H])([2H])N(Cc1ccc(-c2ccc(OC(F)(F)F)cc2)cc1)[C@H](C)[C@](O)(Cn1cncn1)c1ccc(F)cc1F,remaining at 1 h,[1],34.4%
same,Activity,Cryptococcus neoformans [2],62.56%
same,selectivity ratio,[3],> 100
same,Activity,Candida albicans [4],18%
same,t1/2,[5],6.79 h
same,Activity,Cryptococcus neoformans [6],8.38%
same,MRT inf,[7],2.32 h
same,Activity,[8],Non-toxic
same,IC50,Cytochrome P450 3A4,6.62 µM
same,Activity,[9],Non-toxic
same,Activity_index,Nakaseomyces glabratus [10],40
same,MFC,Nakaseomyces glabratus [11],0.5 µg/mL
same,selectivity ratio,[12],> 100
same,survival at 5 mg/kg,Mus musculus,100%
same,Activity,[13],Non-toxic
same,selectivity ratio,[14],> 100
same,MIC80,Nakaseomyces glabratus [15],0.012 µg/mL
same,bioavailability,[16],63.4%
same,Activity,[17],Non-toxic
same,Activity,Cryptococcus neoformans [18],11.59%
same,Activity,Candida albicans [19],46.42%
same,Activity,[20],Non-toxic
same,selectivity ratio,[21],> 100
same,Activity,Cryptococcus neoformans [22],6.14%
same,selectivity ratio,[23],> 100
same,Activity,Cryptococcus neoformans [24],3.21%
same,MRT inf,[25],6.18 h
same,Activity,Candida albicans [26],7.73%
same,IC50 at 72 h,[27],25.2 µM
same,IC50 at 72 h,[28],23.5 µM
same,Activity,Candida albicans [29],3.13%
same,Tmax,[30],4.98 min
same,selectivity ratio,[31],> 100
same,IC50,Cytochrome P450 2C9,1.76 µM
